How the values were obtained:
[1] = tested on: ocular normotensive patients; assay: Phase 1B multiple-ascending dose study of Compound 1 ophthalmic solution, IOP; format: in vivo, human; conditions: for mean diurnal IOP reduction in the study eye, relative to the 15 mg/mL dose: ANCOVA model
Procedure: A multi-center, double-masked, randomized, placebo-controlled, multiple-ascending dose (MAD) cohort study in up to 48 ocular normotensive patients was conducted. For subjects in cohort 1, IOP was between 12 mmHg and 23 mmHg (inclusive) in both eyes on Day −1. Cohorts 2-4 were limited to subjects with pre-treatment IOP≥16 mmHg and ≤23 mmHg in at least one eye and ≤23 mmHg in both eyes at all timepoints on two separate days of IOP assessment during screening. Subjects who received additional carbonic-anhydrase inhibiting drops or cholinergic agonist drops were washed-out for at least 7 days prior to Day −1.
On Day −1 (day before first day of dosing), day 1, and day 7, for all cohorts, a baseline diurnal time point assessment of IOP in both eyes occurred at pre-dose, and 2, 4, and 8 hours post-dose relative to the planned dosing time the following day.
For cohort 1, on the morning of day 1 and day 2, all subjects were administered a single dose (one drop of approximately 30 μL of the dosing solution (Compound 1 or placebo) corresponding to the respective dose level) into the right eye only. If no AEs related to the investigational medicinal product (IMP) that represented a cause for concern were observed, then treatment was administered to both eyes once daily on the mornings of days 3 to 7. For all subsequent cohorts, dose administration was to both eyes on all 7 days (except cohort 4, in which treatment was administered in both eyes twice daily (AM and PM) on days 1-6 with a final single dose in both eyes on the morning of day 7).
Diurnal time point assessments of IOP were performed on day 1 and day 7 in both eyes at pre-dose, and 2, 4, and 8 hours post-dose in all cohorts.
The Compound 1 ophthalmic solution used for the trial was formulated as a sterile unpreserved solution of Compound 1 (0.5% w/v to 4.0% w/v, or 5 mg/mL to 40 mg/mL; as the sodium salt) in a vehicle containing 15% w/v HPβCD and 1% w/v mannitol and adjusted to a pH of 6.5-7.5 with 1N Hydrochloric Acid and/or 1N Sodium Hydroxide. The solution was filtered through sterile 0.22-μm filters, and 0.5 mL was aseptically filled into single-use sterile dose administration bottles suitable for ophthalmic delivery. Placebo was the same as the vehicle for the Compound 1 ophthalmic solution. Compound 1 was stored at United States Pharmacopeia (USP) controlled room temperature.

C57 mice = assay: IOP in mice after once daily topical dosing (rebound tonometry); format: in vivo, mouse
Procedure: Mice were handled in accordance with acceptable animal care and use guidelines. C57BL/6 (C57) mice were bred/housed in clear cages and kept in housing rooms at 21° C. with a 12 h: 12 h light-dark cycle. Mice were examined at ages between 4 to 6 months old.
Each animal was randomly assigned to receive one masked treatment (eye drops, 4% Compound 1 or vehicle) in one eye and the other masked treatment in the contralateral eye once daily for three consecutive days. IOPs of both eyes were measured prior to eye drop administration using rebound tonometry between 11 am and 1 pm daily. After collecting IOP measurements on the third day, a final drop of Compound 1 or placebo was administered and TOP was measured again 2 and 4 hours later. For TOP measurements, mice were anesthetized with ketamine (60 mg/kg) and xylazine (6 mg/kg). TOP was immediately measured as the mice stopped moving, while drifting into light sleep, but before becoming anesthetized. Each TOP measurement that was recorded was a result of an average of six independent measurements per time point, giving a total of […] measurements from the same eye.

C57B16 mice = assay: Schlemm's canal area in mice (PECAM-1 staining); format: in vivo, mouse; conditions: 4% eye drops (5 μL) BID for 4 weeks, 4-week old mice
Procedure: Prior to application of eye drops, mice were anaesthetized using an isoflurane evaporator. Whole mounts of corneas were stained for PECAM-1 (FIG. 6A) and SC areas were measured (FIG. 6B). As depicted in FIG. 6A, 20× fields shown represent an area of […]. Images were captured as Z stacks with a step size of 0.89 μm and a pinhole of 1 airy unit, and are shown as maximum intensity projections. For quantification (FIG. 6B), SC area was measured in sixteen 20× images per condition for 4 eyes of 2 mice; *p≤0.05. Treatment with Compound 1 enhanced SC area by about 12.2% (±4.7%; p=0.022) with topical ocular Compound 1 treatment compared to vehicle.

Q: Which results are given for `COC(=O)N[C@@H](Cc1ccccc1)C(=O)N[C@@H](Cc1ccc(NS(=O)(=O)O)cc1)c1csc(-c2cccs2)n1` [Compound 1, 4-{(S)-2-[(S)-2-(Methoxycarbonylamino)-3-phenylpropanamido]-2-[2-(thiophen-2-yl)thiazol-4-yl]ethyl}phenylsulfamic acid]?
A: mean diurnal IOP reduction in the study eye, relative to the 15 mg/mL dose ([1]; 40 mg/mL BID topical): −2.24 mmHg; mean diurnal IOP reduction in the study eye, relative to the 15 mg/mL dose ([1]; 40 mg/mL QD topical): −1.93 mmHg; IOP on day 7 at the 0-hour, pre-dose time point ([1]; 40 mg/ml dose, 12 hours after the previous dose): persistent TOP reduction; IOP change from baseline at 2, 4, and 8 hours post-dose ([1]; 40 mg/ml dose, days 1 and 7): significant TOP reductions from baseline; decrease of IOP (C57 mice; 4% topical QD, Day 3, 2 and 4 hours after treatment): ~30%; change in IOP relative to Day 0, mean±standard error (C57 mice; 4% topical QD, just prior to dosing on Day 1): −0.74±0.43 mmHg; change in IOP relative to Day 0, mean±standard error (C57 mice; 4% topical QD, just prior to dosing on Day 2): −1.00±0.27 mmHg; change in IOP relative to Day 0, mean±standard error (C57 mice; 4% topical QD, prior to dosing on Day 3): −1.6±0.3 mmHg; change in IOP compared to both Day 0 pretreatment and placebo treatment, mean±SE (C57 mice; Day 3, 2 hours after treatment): −3.85±1.1 mmHg; change in IOP compared to only placebo-treated eyes, mean±SE (C57 mice; Day 3, 2 hours after treatment): −5.66±1.0 mmHg; change in IOP compared to both Day 0 pretreatment and placebo treatment, mean±SE (C57 mice; Day 3, 4 hours after treatment): −3.1±0.6 mmHg; change in IOP compared to only placebo-treated eyes, mean±SE (C57 mice; Day 3, 4 hours after treatment): −4.87±0.75 mmHg; enhancement of Schlemm's canal area compared to vehicle (C57B16 mice): about 12.2%
